Columns and labels:
Format in all cases: cell-based
[1] = test system: motoneurons derived from human iPS cells (409B2 cell lines); experiment: oxidative stress test, Directionality (orientation of axon) after Tau 1 immunostaining; conditions: H2O2 3 hour treatment, PBS washing, culture medium with or without Edaravone; evaluated two days after treatment; highest = negative control
Procedure: Here, cell body spheroids were produced by inoculating motoneurons derived from human iPS cells (409B2 cell lines) in the nonadherent cultivation plate 10. Then, after 10 days of cultivation, the cell body spheroids were inoculated in the first chamber 12a of the module 11 of the cultivation plate 10. Then, after 30 days of cultivation, the treatments of the following (1)-(3) conditions were accomplished.
(1) control PBS (Phosphate Buffered Saline) washing>>>culture medium
(2) H2O2 3 hour treatment>>>PBS washing>>>culture medium
(3) H2O2 3 hour treatment>>>PBS washing>>>culture medium containing Edaravone
Two days after the treatment, evaluation was done after immunostaining by marker Tau 1. The evaluation item was Directionality, which was the orientation of axon. Specifically, the orientations of objects in FIG. 22 were measured In this case, 0 degree indicated the direction of fluid conduit (channel 13). Since the axons were bundled and extended in the same direction, their morphological changes in the channel 13 could be compared between in case of under oxidative stress, as shown in FIG. 22 (b), and in case of under oxidative stress accompanied by application of antioxidant (Edaravone), which was used as neurological disease drug, as shown in FIG. 22 (c). […]

[2] = test system: motoneurons derived from human iPS cells (409B2 cell lines); experiment: calcium imaging of motoneuron spheroid with axon bundle after KCl stimulation; conditions: 1 [mol] of KCl provided to the cell spheroid after fluorescent treatment
Description: FIG. 13 is a set of photographs showing motoneurons used for calcium imaging. In FIG. 13, (a) is a photograph of a spheroid with a bundle of axons outside the cultivation plate before adding calcium, (b) is a photograph of a spheroid with a bundle of axons outside the cultivation plate after adding calcium. In the present experiment, motoneurons derived from human iPS cells (409B2 cell lines) were used. The cell spheroids of the motoneurons were inoculated in the first chambers 12a and cultivated. The motoneurons and the cell spheroids were gained in the same way as mentioned above and the cultivation was accomplished in the same way as mentioned above. After cultivation, one of the motoneurons with a well grown and extended bundle of axons was extracted or brought out from the module 11 of the cultivation plate 10. Then 1 [mol] of KCl was provided to the cell spheroid, so that fluorescence became intense, as shown in FIG. 13(b), as a result of electrophysiological activity induced by the stimulation of KCl.

[3] = test system: motoneurons derived from human iPS cells (409B2 cell lines); experiment: ER stress test on axon bundle (form and orientation of axon); conditions: culture fluid including 1.5 [mol] of thapsigargin for 5 hours, evaluated 6 days later, versus untreated
Description: The first experiment was accomplished to confirm the effect of ER stress against motoneuron using thapsigargin. In the first experiment, motoneurons derived from human iPS cells (409B2 cell lines) were used. The cell body spheroids of the motoneurons were inoculated in the first chambers 12a and cultivated. The motoneurons and the cell body spheroids were gained in the same way as mentioned above and the cultivation was accomplished in the same way as mentioned above. After cultivation, one of the motoneurons with a well grown and extended axon bundle was treated with culture fluid including 1.5 [mol] of thapsigargin for 5 hours. Then, 6 days later, the form of the axon bundle was evaluated, as shown in FIG. 17(b), in comparison with another axon bundle of the motoneurons not treated with any thapsigargin, as shown in FIG. 17(a). It can be said that, when suffering stress, the orientation of the axon becomes low or the axon degenerates.

Row | SMILES | Directionality of the axon bundle in the direction of fluid conduit (0 degree), order among conditions [1] | also measured
1 | OO [H2O2] | the third | –
2 | [Cl-].[K+] [KCl] | – | electrophysiological activity (fluorescence) of motoneuron including cell spheroid and bundle of axons [2]: became electrophysiologically active
3 | CC1=NN(c2ccccc2)C(=O)C1 [Edaravone] | the second | –
4 | C/C=C(/C)C(=O)O[C@H]1C(C)=C2[C@H]([C@@H]1OC(=O)CCCCCCC)[C@@](C)(OC(C)=O)C[C@H](OC(=O)CCC)[C@@]1(O)[C@H]2OC(=O)[C@@]1(C)O [thapsigargin] | – | form of the axon bundle under ER stress [3]: became deformed

Source: patent US20210054320A1, “NEURON CULTIVATION DEVICE, NEURON CULTIVATING METHOD, CULTIVATED NEURON, ANALYSIS AND IDENTIFICATION OF PROTEIN IN AXON BUNDLE, AND USAGE OF CULTIVATED NEURON” (THE FOUNDATION FOR THE PROMOTION OF INDUSTRIAL SCIENCE, priority 2016, published 2021)
